Source: patent US20220194989A1, “SUPRAMOLECULAR POLYPEPTIDE COMPOSITIONS AND METHODS OF MAKING AND USING THE SAME” (Duke University, priority 2019, published 2022)
Where two headings read alike, the source gives them in different places. Where no end group is shown, it is not given here.

Assays:
[1] = tested on: DC2.4 dendritic cells; assay: alamarBlue cell viability assay; settings: 0.2-200 μM, compared to untreated cells
[2] = tested on: RAW264.7 macrophages; assay: alamarBlue cell viability assay; settings: 0.2-200 μM, compared to untreated cells
[3] = tested on: mice; assay: Footpad swelling after footpad injection; settings: single footpad injection, measured over 72 hours, compared to PBS
Description: (§1) (a) Footpad swelling measured 3, 6, 12, 24, 48, and 72 hours following a single footpad injection of (KEYA)20Q11 (red), Alum (dark gray), or PBS (light gray) and subtracted from baseline measurements. […] Mean+/−s.e.m. shown. n=3-5 experimental replicates per group.
(§2) Mice were injected sub-dermally on the back-right footpad with (KEYA)20Q11, Alum, or PBS to determine extent of inflammation caused by the nanomaterial (FIG. 7a). […] Footpad swelling was measured over the course of 72 hours and normalized to a pre-injection footpad thickness measurement.

[4] = tested on: influenza; assay: Unpublished studies of NP-Q11 flu epitope; format: in vivo
[5] = tested on: mice; assay: Multiplex cytokine analysis of lavage fluid after i.p. injection; format: in vivo; settings: for IFNγ in lavage fluid / IL1β in lavage fluid / IL6 in lavage fluid: 2-hour i.p. stimulation, versus PBS
Description: Immune activation is not mediated by inflammation.

[6] = tested on: splenocytes; assay: Flow cytometry of splenocytes after s.c. immunization; format: in vivo, mice; settings: spleens 5 days after last boost; for CD4+CD25hi T cells (Tregs): versus PBS
Description: FIG. 8. […] (a) Cartoon of s.c. immunization schedule with either (KEYA)20Q11 (red), Q11 (blue), PBS (gray). Spleens were harvested at week 6. Percent of (b) CD3+ cells and (c) CD3+IL4+ cells from total number of live cells. Percent of (d) CD4+ cells and (e) CD4+IL4+ cells from total number of CD3+ cells. […] Mean+/−s.e.m. shown. n=4-5 experimental replicates per group.
Mice were immunized and boosted twice with (KEYA)20Q11, Q11, or PBS ([…]) and their spleens were harvested 5 days after the last boost. After the splenocytes were stimulated overnight with their immunizing peptide, cells were stained and taken to flow cytometry for analysis.

[7] = tested on: DC2.4 cells; assay: Confocal microscopy of nanofiber internalization; format: cell-based; settings: after 24 hours
[8] = parameters: species or system mice; settings: mouse, in vivo; for persistence at the injection site (average days fluorescence detected): sc
Description: Persistence at the injection site.

[9] = cited from earlier work
[10] = tested on: Dendritic cells; assay: In vivo APC uptake of fluorescent nanofibers after i.p. injection; parameters: species or system mice; settings: 2 hours
[11] = tested on: local macrophages; assay: as above; parameters: species or system mice; settings: 2 hours
[12] = tested on: lymphocytes from draining lymph nodes; assay: ELISpot on draining lymph nodes restimulated with immunizing peptide; format: in vivo, mice; settings: for induction of antibody and T cell responses: summary of antibody and ELISpot results
[13] = tested on: mice; assay: Immunization with four (KEYA)nQ11 lengths, anti-immunizing peptide IgG titers; format: in vivo
[14] = mouse, in vivo
Description: Mice injected with TAMRA labeled Q11 on the left flank and (KEYA)20Q11 on the right were (a) measured with IVIS immediately after injection and daily for 7 days. (b) The number of days the fluorescence was detected was graphed to compare the persistence between the two groups. (c) The radiant efficiency was calculated from the images collected and graphed on a log 10 scale. (d) Total amount of remaining nanofiber and (e) overlap between nanofibers and CD45+ cells calculated from confocal images. (f) Representative confocal images from injection site skin collected on Day 7.
Persistence at the injection site. […] Uptake by APCs occurs primarily at the s.c. injection site, so we used IVIS to image mice injected with fluorescently labeled nanofibers over the course of a week. Mice were injected with Q11 on their left flank and (KEYA)20Q11 on their right (FIG. 9a) and images were taken daily to measure the retention of each nanomaterial at the injection site. […] Skin sections were taken of the injection site on day 7 and stained with CD45, a common lymphocyte marker, and DAPI, a common cell nuclei stain (FIG. 9d-f).

[15] = tested on: purified lymphocyte populations from spleens; assay: ELISpot after immunization with (KEYA)20Q11 co-assembled with NP-Q11; format: in vivo, mice; settings: week 3.5
[16] = Nanofiber formation (AFM, ThT binding); format: physicochemical; settings: physiological conditions
[17] = tested on: Lymphocyte populations purified from spleens; assay: ELISpot after immunization with (KEYA)20Q11 co-assembled with PADREQ11; format: in vivo, mice; settings: co-assembled with 2.5% PADREQ11; 3.5 weeks
Description: FIG. 6. (KEYA)20Q11 can enhance the T cell stimulatory capabilities of other T and B cell epitopes. (a) ELISpot from mice immunized and boosted with nanofiber formulations containing 2.5% PADREQ11 and either 97.5% (dark red), 2.5% (light red), or 0% (gray) (KEYA)20Q11 co-assembled with Q11 into a 2 mM nanofiber. […] (b) ELISpot from mice immunized and boosted with nanofiber formulations containing 50% NPQ11 and either 50% (red), or 0% (gray) (KEYA)20Q11 co-assembled with Q11 into a 2 mM nanofiber. […] (c) Cartoon of immunization schedule for figures (d) and (e). All groups contained 50% TNFQ11 (d) anti-TNF IgG antibody titers for groups described in (c). (e) anti-TNF IgG1 and IgG2c antibodies. *p<0.05, **p<0.01, ***p<0.001 by 2way ANOVA with Sidak's post hoc test.
Enhancement of co-assembled T and B cell epitopes. Having characterized (KEYA)20Q11 and the subsequent humoral and cellular responses, the inventors tested the hypothesis that co-assembling (KEYA)20Q11 with other epitopes may enhance the response to the co-assembled epitope. Previous work has established a method for ensuring co-assembly of multiple epitopes onto a single nanofiber^38. Highlighting an advantage of the Q11 system, we were able to systematically add and titrate co-assembled (KEYA)20Q11 with a variety of T and B cell epitopes to investigate the resulting magnitude of immune responses. […]

[18] = tested on: mice; settings: mouse, in vivo
Description: as §1, §2

[19] = tested on: mice; assay: Immunization with Q11 nanofibers containing 1-50% (KEYA)20Q11, anti-p(KEYA)20 IgG titers; format: in vivo; settings: 2 mM total formulation with Q11, boosted every 2.5 weeks
Description: FIG. 5. Titration of (KEYA)20 component modulates the strength of engagement with APCs and humoral immunity while maintaining a Type 2 T cell phenotype. Uptake of TAMRA labeled (KEYA)20Q11 in (a) DC2.4 dendritic cells, RAW264.7 macrophages, and B-LCL human B cells stimulated for 0.1, 0.5, 2, 24, and 72 (B cells only) hours measured by flow cytometry. 100% refers to the molar percent of (KEYA)20 incorporated into a 2 mM Q11 nanofiber. 10% indicates 10% (KEYA)20Q11 and 90% Q11, while 0% indicates the entire nanofiber contains only Q11. All groups included 2.5% fluorescent TAMRA-Q11. (b) Representative confocal images of fluorescent Q11 and (KEYA)20Q11 stimulated DC2.4 cells. Nanofibers seen in red, cell nuclei in blue, and cell borders in green. […] (c) Populations of mouse APCs containing nanofibers collected 12 hours after i.p. injection. (d) Cartoon indicating the boosting schedule and graph of the anti-p(KEYA)20 IgG antibody titers. 50% (KEYA)20 is represented darkest red, 33% (KEYA)20 in the second darkest, 10% (KEYA)20 in the second lightest, and 1% (KEYA)20 in the lightest color. Week 16 IgG1 and IgG2c isotypes are shown in (e), (KEYA)20 only produces an IgG1 response when at 33% and 50%. […]

[20] = 12-hour i.p. stimulation, compared to PBS

In the case of `C[S+](C)[O-]` [DMSO], the “cell viability (health of the dendritic cells)” value [1] is reported as “dose dependent cytotoxic response” and the “cell viability (health of the macrophages)” value [2] is reported as “dose dependent cytotoxic response”.
With Alum the footpad swelling [3] was “significantly larger swelling”.
For “NH2-QVYSLIRPNENPAHK SGSG QQKFQFQFEQQ-Am (H-QVYSLIRPNENPAHKSGSGQQKFQFQFEQQ-NH2; also: linked to (KEYA)20Q11) [NP-Q11]”, the “protection against an influenza challenge” value ([4]; unpublished studies) was “does not raise strong enough responses to be protective” and the “T cell response phenotype” value ([4]; unpublished work) was “IFNγ biased T cell responses”.
For “QQKFQFQFEQQ (Synthetic- KEYA Q11) [unmodified nanofiber, reference compound]”, the “IFNγ in lavage fluid” value [5] was “indistinguishable from PBS”, the “IL1β in lavage fluid” value [5] was “indistinguishable from PBS” and the “IL6 in lavage fluid” value [5] was “indistinguishable from PBS”. For the same molecule, the “CD4+CD25hi T cells (Tregs)” value [6] was “significantly increases”, the “internalization seen by confocal microscopy” value [7] was “minimally internalized” and the “persistence at the injection site (average days fluorescence detected)” value [8] was 3 days. The inflammation after injection ([9]; in vivo) was “not inflammatory”, the humoral response ([9]; previous reports) was “no humoral response” and the “dendritic cell population with nanofiber uptake” value [10] was “about 25%”. The “local macrophages with nanofiber uptake” value [11] was ~100%.
In the case of “SSQNSSDKPVAHVVANHQVE-SGSG-QQKFQFQFEQQ (SSQNSSDKPVAHVVANHQVESGSGQQKFQFQFEQQ; Synthetic- TNF-Q11 TNF4-23 linked to (KEYA)20Q11)”, the effect on inflammation ([9]; when a strong B cell response is raised) is listed as “effectively reduce inflammation”.
For “XQQKFQFQFEQQ (not fully specified; X: randomised place (mixture)) [(KEYA)1Q11]”, the “induction of antibody and T cell responses” value [12] was “ineffective at inducing immune responses” and the “(KEYA)n-specific IgG antibodies” value ([13]; boosted every 2.5 weeks, 14-week experiment) was “no humoral response”.
In the case of “XXXXXXXXXXXXXXXXXXXXQQKFQFQFEQQ [(KEYA)20Q11]”, the “capsule formation around the injected material” value [14] is reported as “little to no capsule formation”, the “T cell response to pNP” value ([15]; 50% (KEYA)20Q11 co-assembled with 50% NP-Q11 versus 0%) is reported as “significantly enhanced” and the “response to re-stimulation with p(KEYA)20” value ([15]; co-assembled with 50% NP-Q11) is reported as “strong response”. For the same molecule, the nanofiber formation [16] was “self-assembles into nanofibers”, the “IFNγ in lavage fluid” value [5] was “indistinguishable from PBS” and the “IL1β in lavage fluid” value [5] was “indistinguishable from PBS”. For the same molecule, the “IL6 in lavage fluid” value [5] was “indistinguishable from PBS”, the “IL4 in lavage fluid” value [5, 20] was “significantly elevated” and the “IL5 in lavage fluid” value [5, 20] was “significantly elevated”. The “Type 2 T cell bias upon re-stimulation with p(KEYA)20” value [17] was “statistically higher production of IL4 than IFNγ”, the “CD4+ T cells” value [6] was “slight reduction” and the “general proliferation of T cells (total percent of CD3+ cells)” value [6] was “no effect”. For the same molecule, the “percent of IL4+ CD3+ cells” value [6] was “significantly higher percent”, the “percent of IL4+ CD4+ T cells” value [6] was “increase” and the “CD4+CD25hi T cells (Tregs)” value [6] was “increases the production of Tregs”. The “induction of antibody and T cell responses” value [12] was “strong antibody and T cell responses”, the “IL4 production by T cells (ELISpot)” value ([12]; week 14, compared with (KEYA)1Q11 or (KEYA)5Q11) was “significantly higher IL4 production” and the “internalization seen by confocal microscopy” value [7] was “abundantly present”. For the same molecule, the “amount retained at the site by radiant efficiency” value [8] was “greater amounts”, the “persists at the injection site and maintains immunogenicity” value [8] was “up to 7 days” and the “persistence at the injection site (average days fluorescence detected)” value [8] was 5 days. The footpad swelling [18] was “no distinguishable swelling”, the “dendritic cell population with nanofiber uptake” value [10] was “about 60%” and the “local macrophages with nanofiber uptake” value [11] was ~100%. The “Th2 response indicated by IgG1 versus IgG2c titers” value ([13]; week 14) was “strong Th2 response” and the “molar concentration in nanofiber necessary to stimulate a (KEYA)20-specific IgG humoral response” value [19] was ≥ 33%.
